Values belong to the compound of their own block, whether it stands above or below them.
Columns and labels:
[1] = test system: estradiol production from H295R cells; assay: cells; format: cell-based, human; settings: Homo sapiens, NCI-H295R, 48 h, read-out: Estradiol IC50 (μM)
Protocol: (§1) The human adrenocarcinoma cell line H295R is used to monitor the production of testosterone and estradiol in vitro. […] Various concentrations of test compounds in 1:3 dilution increments are added to the cell culture medium. After incubation for 48 hours, 100 μl culture medium is collected and d5-estradiol and d3-testosterone are added as ISs for estradiol and testosterone respectively.
(§2) An equal volume of sodium carbonate/sodium bicarbonate buffer (0.5 mol/L, pH 9.4) is added to the samples followed by freshly prepared dansyl chloride solution (50 μl, 20 mg/mL). Samples are mixed and incubated for 60 min at 60° C. The samples are then extracted 3× with EtOAc ([…]) using the FX, combining the organic layers in a new deep-well 96-well plate. The solvent is then dried in a GeneVac HT-4 or under nitrogen. The FX is used to reconstitute the samples in 50% MeOH/water ([…]) and the plates are heat-sealed.
(§3) A 40 μl aliquot of the sample is injected and a gradient from 20-100% MeOH in 0.95 min is initiated. An ABI QTRAP 4000 tandem mass spectrometer is used for MS/MS analysis in the positive ion mode. […] These peaks are separately integrated to give the peak areas. The area ratios of testosterone/IS and estradiol/IS are used to determine testosterone and estradiol concentrations by comparison to their respective standard curves. The detection limits for testosterone and estradiol are 0.1 ng/mL and 0.01 ng/mL respectively.

[2] = test system: testosterone production from H295R cells; assay: cells; format: cell-based, human; settings: Homo sapiens, NCI-H295R, 48 h, read-out: Testosterone IC50 (μM)
Protocol: as §1, §2, §3

[3] = test system: aldosterone production in rats; assay: Inhibition of Aldosterone Synthase in Rats (rat sodium-deficiency diet model); format: in vivo; settings: Example 1 10.0 mg/kg, Example 49 30.0 mg/kg, Fadrozole 1.0 mg/kg
Protocol: The effect of compounds on aldosterone production in rats is assessed using the rat sodium-deficiency diet model. […] At 3 hours post dose rats are bled (˜0.5 mL) from the ocular orbit under isoflurane anesthesia. At 6 hours post-dose the rats are euthanized with CO2 and bled by cardiac puncture. Blood samples are clotted at least 30 minutes and serum is prepared and stored at approximately −80° C. until assayed. Aldosterone, steroids, and compound exposure are analyzed by mass spectroscopy.

human cyp11B2 = biological target: T1, human cyp11B2 (Homo sapiens, UniProt P19099); assay: Aldosterone Synthase Inhibitor Assay (V79-hcyp11B2 cells, aldosterone by LC-MS); format: cell-based; settings: aldosterone production from 1 μM DOC, 24 hours incubation, geometric means, separate experiments
T1 construct: expressed in transfected cells
T1 sequence (P19099 25-503): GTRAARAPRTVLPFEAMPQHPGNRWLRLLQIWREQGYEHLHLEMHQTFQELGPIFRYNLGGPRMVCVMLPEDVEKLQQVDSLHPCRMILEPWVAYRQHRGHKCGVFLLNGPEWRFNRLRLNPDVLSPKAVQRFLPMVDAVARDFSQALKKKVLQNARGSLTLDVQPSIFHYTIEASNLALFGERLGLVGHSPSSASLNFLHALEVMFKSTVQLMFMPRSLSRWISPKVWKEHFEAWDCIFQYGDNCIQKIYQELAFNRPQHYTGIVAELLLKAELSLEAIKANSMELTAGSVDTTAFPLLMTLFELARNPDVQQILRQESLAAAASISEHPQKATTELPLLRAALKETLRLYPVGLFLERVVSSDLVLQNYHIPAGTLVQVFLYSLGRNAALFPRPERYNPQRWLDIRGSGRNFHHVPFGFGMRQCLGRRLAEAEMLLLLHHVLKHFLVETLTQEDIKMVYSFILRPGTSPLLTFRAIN
Protocol: Chinese hamster fibroblast cells (V79, ATCC™) constitutively expressing human cyp11B2 are established by transfection with a mammalian expression vector harboring the human cyp11B2 cDNA under CMV promoter and a neomycin antibiotic resistant gene for selection in mammalian cells. V79 cells are transfected in T225 cm^2 flasks with the lipofectamine transfection reagent and the human cyp11B2 cDNA. Positive clones are selected with the selection antibiotic geneticin at 1 mg/mL.
Aldosterone production from transfected cells is initiated by the addition of 1 μM DOC in the medium. After 24 hours incubation, 100 μL cell culture medium is collected and aldosterone concentration in the medium is determined using a liquid chromatography-mass spectrometry (LC-MS) method. […] The wells are then extracted 3× with EtOAc (150 μl) using the FX, combining the organic layers in a new 96-well plate. The solvent is dried in a GeneVac HT-4 or under nitrogen. […] A 25 μl aliquot of the sample is injected and a gradient from 20-100% ACN+0.1% formic acid (FA) in 1 min is initiated. Aldosterone elutes at 0.7 min. Starting conditions are held for 1 minute to re-equilibrate the column. An ABI 4000 tandem mass spectrometer is used for MS/MS analysis in the negative ion mode. […] The area under the peak from each transition is added together to comprise the signal from aldosterone and IS, respectively. […] The detection limit for aldosterone is […].
DOC and various concentrations of test compounds in 1:3 dilution increments are added to the cell culture medium. After 24 hours incubation, 100 μl of cell medium are collected and aldosterone concentration determined as described above. Data are fit to a 4 parameter-fit logistics curve to determine IC50 values.

SMILES: N#Cc1ccc([C@H]2CCc3cncn32)c(F)c1 [Novartis LCI699, reference compound]
IC50 [1]: 0.123 µM
IC50 [2]: 5.01 µM

SMILES: N#Cc1ccc(C2CCCc3cncn32)cc1 (stereo not drawn) [Fadrozole, fadrozole, reference compound]
% Inhibition 3 hrs ([3]; inhibition of aldosterone vs vehicle, 3 hrs post oral dose): 64.4%
% Inhibition 6 hrs ([3]; inhibition of aldosterone vs vehicle, 6 hrs post oral dose): 55.2%
Aldosterone (pg/mL) 3 hrs ([3]; serum, 3 hrs post oral dose, rat Na-deficient diet model): 669.8 pg/mL
Aldosterone (pg/mL) 6 hrs ([3]; serum, 6 hrs post oral dose, rat Na-deficient diet model): 1144.2 pg/mL

IC50 (human cyp11B2): 157 nM
SMILES: FC(F)(F)c1ccc(C2CCc3[nH]ncc32)cc1 (racemic) [Example 18, (+/−)-4-(4-Trifluoro-methylphenyl)-1,4,5,6-tetrahydrocyclopenta[c] pyrazole]

IC50 (human cyp11B2): 5 nM
SMILES: N#Cc1ccc(C2CCCc3[nH]ncc32)cc1F (racemic) [Example 59, (+/−)-2-Fluoro-4-(4,5,6,7-tetrahydro-1H-indazol-4-yl)benzonitrile]

IC50 (human cyp11B2): 154 nM
SMILES: Cc1ccc(C2CCCc3n[nH]cc32)cc1 (single isomer, unassigned; isomer 2) [Example 54, 4-(p-Tolyl)-4,5,6,7-tetrahydro-2H-indazole-isomer 2]
